Earlier results, collected in US11628185B2, “Stabilized active oxygen-generating antiseptic compositions, irrigation solutions, and articles” (priority 2021, dated 2023).

Experiments:
[1] = all tested concentrations, even dilute 0.35%; used for more than 1 minute
[2] = topical application prior to wound closure
[3] = test system: osteoblasts, fibroblasts, and myoblasts

In the case of povidone-iodine, the “effect of lavage on post-operative infection risk” value (post-operative infection; Mayo Clinic case series, more than 10,000 THAs and TKAs) is listed as “no risk reduction effect”, the “post-operative infection rates versus non-povidone-iodine lavage” value (post-operative infection; meta-analysis March 2020, seven studies, 31,213 TJA cases) is listed as “no differences” and the chondrotoxic effect [1] is listed as “pronounced chondrotoxic effect”. The serum iodine level [2] was “significant increases” and the “effect on cell migration and survival” value [3] was “inhibiting cell migration and survival”.
